Tests used:
[1] = target: K-Ras^G12C : hSOS1 interaction (Homo sapiens, UniProt Q07889); experiment: Biochemical assay 1: K-Ras^G12C interaction assay with hSOS1 (HTRF); type: binding; conditions: for IC50: read-out: Assay 1 (KRAS-SOS Interaction) activity expressed as IC50
[2] = target: human SOS1 (loading of human K-Ras^G12C-GDP with fluorescent GTP-analog) (Homo sapiens, UniProt Q07889); experiment: Biochemical assay 3: K-Ras^G12C activation assay by hSOS1 (HTRF); conditions: no GTP; for IC50: read-out: Assay 3 (KRAS-Activation by SOS no GTP) activity expressed as IC50; for inhibition at 20 µM: read-out: Assay 3 (KRAS-Activation by SOS no GTP) activity expressed as % inhibition at 20 μM

| Compound | IC50 [1] [nM] | IC50 [2] [nM] | inhibition at 20 µM [2] [%] | inhibition at 20 µM ([1]; read-out: Assay 1 (KRAS-SOS Interaction) activity expressed as % inhibition at 20 μM) [%] |
| --- | --- | --- | --- | --- |
| COc1cc2nc(C)nc(NC(C)c3cccc(Oc4ccccc4)c3)c2cc1OC (single isomer, unassigned; enantiomer 1) [Example 228, 6,7-dimethoxy-2-methyl-N-[1-(3-phenoxyphenyl)ethyl]quinazolin-4-amine, Enantiomer 1] | 569 | 1430 | – | – |
| COc1cc2nc(C)nc(NC(C)c3cccc4cccnc34)c2cc1OC (single isomer, unassigned; enantiomer 1) [Example 230, 6,7-dimethoxy-2-methyl-N-[1-(quinolin-8-yl)ethyl]quinazolin-4-amine, Enantiomer 1] | 4900 | 13300 | – | – |
| COc1cc2nc(C)nc(N[C@H](C)c3cccc(Cl)c3)c2cc1OC [Example 2, N-[(1R)-1-(3-chlorophenyl)ethyl]-6,7-dimethoxy-2-methylquinazolin-4-amine] | 127 | 537 | – | – |
| COC(=O)c1cc2c(C(C)Nc3nc(C)nc4cc(OC)c(OC)cc34)cccc2s1 (stereo not shown) [Example 3, methyl 4-{1-[(6,7-dimethoxy-2-methylquinazolin-4-yl)amino]ethyl}-1-benzothiophene-2-carboxylate] | 113 | 231 | – | – |
| COc1cc2nc(C)nc(NC(C)c3cccc4ccoc34)c2cc1OC (stereo not shown) [Example 4, N-[1-(1-benzofuran-7-yl)ethyl]-6,7-dimethoxy-2-methylquinazolin-4-amine] | 161 | 479 | – | – |
| COc1cc2nc(C)nc(NC(C)c3ccc(F)c4[nH]ncc34)c2cc1OC (stereo not shown) [Example 5, N-[1-(7-fluoro-1H-indazol-4-yl)ethyl]-6,7-dimethoxy-2-methylquinazolin-4-amine] | 1710 | 5060 | – | – |
| COc1cc2nc(C)nc(NC(C)c3cc(F)cc4[nH]ncc34)c2cc1OC (stereo not shown) [Example 6, N-[1-(6-fluoro-1H-indazol-4-yl)ethyl]-6,7-dimethoxy-2-methylquinazolin-4-amine] | 2280 | 4980 | – | – |
| COc1cc2nc(C)nc(NC(C)c3cccc4cn(C)nc34)c2cc1OC (stereo not shown) [Example 8, 6,7-dimethoxy-2-methyl-N-[1-(2-methyl-2H-indazol-7-yl)ethyl]quinazolin-4-amine] | 18200 | – | 14 | – |
| COc1cc2nc(C)nc(NC(C)c3cccc4nn(C)cc34)c2cc1OC (stereo not shown) [Example 9, 6,7-dimethoxy-2-methyl-N-[1-(2-methyl-2H-indazol-4-yl)ethyl]quinazolin-4-amine] | 1520 | 5960 | – | – |
| COc1cc2nc(C)nc(NC(C)c3cccc4cnn(C)c34)c2cc1OC (stereo not shown) [Example 10, 6,7-dimethoxy-2-methyl-N-[1-(1-methyl-1H-indazol-7-yl)ethyl]quinazolin-4-amine] | 1180 | 6140 | – | – |
| COc1cc2nc(C)nc(NC(C)c3cccc4c3CCCC4)c2cc1OC (stereo not shown) [Example 11, 6,7-dimethoxy-2-methyl-N-[1-(5,6,7,8-tetrahydronaphthalen-1-yl)ethyl]quinazolin-4-amine] | 203 | 540 | – | – |
| COc1cc2nc(C)nc(N[C@H](C)c3ccc(F)cc3)c2cc1OC [Example 12, N-[(1R)-1-(4-fluorophenyl)ethyl]-6,7-dimethoxy-2-methylquinazolin-4-amine] | 335 | 1290 | – | – |
| COc1cc2nc(C)nc(NC(C)c3cccc4[nH]nc(C)c34)c2cc1OC (stereo not shown) [Example 13, 6,7-dimethoxy-2-methyl-N-[1-(3-methyl-1H-indazol-4-yl)ethyl]quinazolin-4-amine] | 2020 | 7730 | – | – |
| COc1cc2nc(C)nc(NC(C)c3cc4cccc(O)c4o3)c2cc1OC (stereo not shown) [Example 28, 2-{-[(6,7-dimethoxy-2-methyquinazolin-4-yl)amino]ethyl}-1-benzofuran-7-ol] | – | – | 46 | 40 |
| COC(=O)c1ccccc1-c1ccc(C(C)Nc2nc(C)nc3cc(OC)c(OC)cc23)s1 (stereo not shown) [Example 178, methyl 2-(5-{1-[(6,7-dimethoxy-2-methylquinazolin-4-yl)amino]ethyl}thiophen-2-yl)benzoate] | 1430 | 7120 | – | – |
| COc1cc2nc(C)nc(NC(C)c3ccc(-c4ccccc4CN4CCC(C(N)=O)CC4)s3)c2cc1OC (stereo not shown) [Example 179, 1-[2-(5-{1-[(6,7-dimethoxy-2-methylquinazolin-4-yl)amino]ethyl}thiophen-2-yl)benzyl]piperidine-4-carboxamide] | 90.4 | 214 | – | – |
| COc1cc2nc(C)nc(NC(C)c3ccc(-c4ccccc4CCO)s3)c2cc1OC (stereo not shown) [Example 180, 2-[2-(5-{1-[(6,7-dimethoxy-2-methylquinazolin-4-yl)amino]ethyl}thiophen-2-yl)phenyl]ethanol] | 241 | 820 | – | – |
| COc1cc2nc(C)nc(NC(C)c3ccc(-c4cccc(CCO)c4)s3)c2cc1OC (stereo not shown) [Example 181, 2-[3-(5-{1-[(6,7-dimethoxy-2-methylquinazolin-4-yl)amino]ethyl}thiophen-2-yl)phenyl]ethanol] | 3500 | – | 45 | – |
| COc1cc2nc(C)nc(NC(C)c3ccc(-c4ccccc4CN4CC5(COC5)C4)s3)c2cc1OC (stereo not shown) [Example 182, 6,7-di methoxy-2-methyl-N-[1-{5-[2-(2-oxa-6-azaspiro[3.3]hept-6-ylmethyl)phenyl]thiophen-2-yl}ethyl]quinazolin-4-amine] | 51 | 121 | – | – |
| COc1cc2nc(C)nc(NC(C)c3cc(C)c(Br)s3)c2cc1OC (stereo not shown) [Example 183, N-[1-(5-bromo-4-methylthiophen-2-yl)ethyl]-6,7-dimethoxy-2-methylquinazolin-4-amine] | 2110 | 9140 | – | – |
| COc1cc2nc(C)nc(NC(C)c3ccc(-c4ccccc4CN4CCCC4)s3)c2cc1OC (stereo not shown) [Example 184, 6,7-dimethoxy-2-methyl-N-[1-{5-[2-(pyrrolidin-1-ylmethyl)phenyl]thiophen-2-yl}ethyl]quinazolin-4-amine] | 41.6 | 122 | – | – |
| COc1cc2nc(C)nc(NC(C)c3ccc(-c4ccccc4CN4CCC[C@H]4CN(C)C)s3)c2cc1OC (stereo partly drawn) [Example 185, N-[1-{5-[2-({(2S)-[(dimethylamino)methyl]pyrrolidin-1-yl}methyl)phenyl]thiophen-2-yl}ethyl]-6,7-dimethoxy-2-methylquinazolin-4-amine] | 78.8 | 323 | – | – |
| Cc1nc(N[C@H](C)c2cccc3ccccc23)c2ccccc2n1 [Example 186, 2-methyl-N-[(1R)-1-(naphthalen-1-yl)ethyl]quinazolin-4-amine] | 9940 | – | 22 | – |
| COc1cc2nc(C)nc(N[C@H](C)c3ccc(Br)cc3)c2cc1OC [Example 187, N-[(1R)-1-(4-bromophenyl)ethyl]-6,7-dimethoxy-2-methylquinazolin-4-amine] | 476 | 1260 | – | – |
| COc1cc2nc(C)nc(N[C@H](C)c3ccc(S(C)(=O)=O)cc3)c2cc1OC [Example 188, 6,7-dimethoxy-2-methyl-N-{(1R)-1-[4-(methylsulfonyl)phenyl]ethyl}quinazolin-4-amine] | 15700 | – | 38 | – |
| COc1cc2nc(C)nc(N[C@H](C)c3cccc(C)c3)c2cc1OC [Example 190, 6,7-dimethoxy-2-methyl-N-[(1R)-1-(3-methylphenyl)ethyl]quinazolin-4-amine] | 175 | 553 | – | – |
